Source: US20120309838A1, “USE OF AGOMELATINE IN OBTAINING MEDICAMENTS INTENDED FOR THE TREATMENT OF OBSESSIVE-COMPULSIVE DISORDER (OCD)” (Les Laboratoires Servier, priority 2010, published 2012)
Entries after “also recorded” stand apart in the source; their conditions may differ.

How the values were obtained:
[1] = tested on: Male mice of the NMRI strain; test: Spontaneous marble burying in mice (model of Obsessive-Compulsive Disorder); type: in vivo; conditions: for number of marbles buried: injected 30 minutes before test, 30 minutes' exploration, 24 marbles, carrier 20.2±0.6
Description: Pre-clinical studies were carried out using a model of Obsessive-Compulsive Disorder (OCD), confirming the potential of agomelatine for treatment of this pathology. […] The study was carried out as follows. Male mice of the NMRI strain (Iffa-Credo, L'Arbresle, France), weighing 20-25 g on the day of the experiment, were placed individually in Macrolon boxes (30×18×19 cm) containing 5 cm of sawdust and covered with a perforated plexiglass plate. Twenty-four “cat's eye” glass marbles were evenly distributed on the sawdust at the periphery of the box. At the end of 30 minutes' free exploration, the animals were removed from the box and the number of buried marbles was counted. Agomelatine or the carrier (control) was injected 30 minutes before the start of the test.

[2] = tested on: out-patients having a primary diagnosis of Obsessive-Compulsive Disorder; test: Double-blind placebo-controlled clinical study in out-patients with Obsessive-Compulsive Disorder; type: in vivo, human; conditions: 25 mg, 16 weeks of treatment
Description: A clinical study comparing agomelatine with placebo was carried out in 80 out-patients more than 18 and less than 65 years in age, having a primary diagnosis of Obsessive-Compulsive Disorder according to the criteria of DSM-IV-TR. The patients must have, on entry into the study, a score of 20 or more on the Y-BOCS scale (Yale Brown Obsessive Compulsive Scale) and have been previously treated for their Obsessive-Compulsive Disorder with a serotonin reuptake inhibitor (SRI). The patients must have a depression severity score of less than 24 on the MADRS depression scale.
The study is a double-blind placebo-controlled study for a duration of treatment of 16 weeks. The patients are randomised either into the placebo group or into the 25 mg agomelatine group with the possibility of increasing the dose of agomelatine to 50 mg in the event of failure to respond after 8 weeks of treatment (criterion for failure to respond: less than 20% reduction in the total Y-BOCS score).
The main criterion for the assessment of efficacy is the reduction in the total score on the Y-BOCS scale. […] The presence of depressive symptoms and their course over time are analysed by the MADRS depression scale at the start of treatment and after 16 weeks of treatment. […]

[3] = tested on: patients; test: Tolerability observed in clinical trials on close to 3900 patients; type: in vivo, human
Source text: Amongst those effects, the discontinuation syndrome observed on stopping treatment with the customary psychotropic agents is absent in the case of agomelatine, which makes it a treatment of choice in this indication.

## COc1ccc2cccc(CCNC(C)=O)c2c1 [Agomelatine, N-[2-(7-methoxy-1-naphthyl)ethyl]acetamide]
[1]; 10 mg/kg intraperitoneal, n=6
  number of marbles buried: 19.2±1.3
[1]; 40 mg/kg intraperitoneal, n=6, P<0.05 vs carrier
  number of marbles buried: 15.3±3.0
[1]; 80 mg/kg intraperitoneal, n=5, P<0.05 vs carrier
  number of marbles buried: 4.6±1.9
[1]; intraperitoneal, doses of 10, 40 and 80 mg/kg
  effect on spontaneous marble burying (in words): greatly reduced spontaneous marble burying in mice in dose-dependent manner; also recorded: statistically significant activity
[2]; possibly increased to 50 mg after 8 weeks, versus placebo, 80 out-patients
  efficacy in the treatment of Obsessive-Compulsive Disorder (in words): confirm the efficacy
[2]; possibly increased to 50 mg
  acceptability profile (in words): good acceptability profile
[3]; clinical trials on close to 3900 patients
  tolerability (in words): excellent tolerability
[3]; compared with the customary psychotropic agents
  discontinuation syndrome on stopping treatment: absent
